# Test results reported in patent US10052306B2 (LUC THERAPEUTICS, INC., priority 2013, dated 2018).
# pIC50: −log10 of the molar value. Read-outs that look alike come from different tables or passages of the source.
# Legend:
# NR1/NR2B [1] = biological target: NR1/NR2B (Homo sapiens (Human), UniProt Q05586+Q13224); assay: Cell assay: FDSS Ca2+ influx inhibition in HEK293 cells expressing NR1/NR2B; settings: Binned Activity;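 also: Fluo-8 Ca2+ signal read on Hamamatsu FDSS 6000 after glutamate, glycine and Ca2+ challenge following 10 min compound preincubation, end/baseline fluorescence ratio compared with MK801 control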
# Chain of NR1/NR2B (Homo sapiens (Human), UniProt Q05586+Q13224) (Q13224 27-1484, other chains not shown): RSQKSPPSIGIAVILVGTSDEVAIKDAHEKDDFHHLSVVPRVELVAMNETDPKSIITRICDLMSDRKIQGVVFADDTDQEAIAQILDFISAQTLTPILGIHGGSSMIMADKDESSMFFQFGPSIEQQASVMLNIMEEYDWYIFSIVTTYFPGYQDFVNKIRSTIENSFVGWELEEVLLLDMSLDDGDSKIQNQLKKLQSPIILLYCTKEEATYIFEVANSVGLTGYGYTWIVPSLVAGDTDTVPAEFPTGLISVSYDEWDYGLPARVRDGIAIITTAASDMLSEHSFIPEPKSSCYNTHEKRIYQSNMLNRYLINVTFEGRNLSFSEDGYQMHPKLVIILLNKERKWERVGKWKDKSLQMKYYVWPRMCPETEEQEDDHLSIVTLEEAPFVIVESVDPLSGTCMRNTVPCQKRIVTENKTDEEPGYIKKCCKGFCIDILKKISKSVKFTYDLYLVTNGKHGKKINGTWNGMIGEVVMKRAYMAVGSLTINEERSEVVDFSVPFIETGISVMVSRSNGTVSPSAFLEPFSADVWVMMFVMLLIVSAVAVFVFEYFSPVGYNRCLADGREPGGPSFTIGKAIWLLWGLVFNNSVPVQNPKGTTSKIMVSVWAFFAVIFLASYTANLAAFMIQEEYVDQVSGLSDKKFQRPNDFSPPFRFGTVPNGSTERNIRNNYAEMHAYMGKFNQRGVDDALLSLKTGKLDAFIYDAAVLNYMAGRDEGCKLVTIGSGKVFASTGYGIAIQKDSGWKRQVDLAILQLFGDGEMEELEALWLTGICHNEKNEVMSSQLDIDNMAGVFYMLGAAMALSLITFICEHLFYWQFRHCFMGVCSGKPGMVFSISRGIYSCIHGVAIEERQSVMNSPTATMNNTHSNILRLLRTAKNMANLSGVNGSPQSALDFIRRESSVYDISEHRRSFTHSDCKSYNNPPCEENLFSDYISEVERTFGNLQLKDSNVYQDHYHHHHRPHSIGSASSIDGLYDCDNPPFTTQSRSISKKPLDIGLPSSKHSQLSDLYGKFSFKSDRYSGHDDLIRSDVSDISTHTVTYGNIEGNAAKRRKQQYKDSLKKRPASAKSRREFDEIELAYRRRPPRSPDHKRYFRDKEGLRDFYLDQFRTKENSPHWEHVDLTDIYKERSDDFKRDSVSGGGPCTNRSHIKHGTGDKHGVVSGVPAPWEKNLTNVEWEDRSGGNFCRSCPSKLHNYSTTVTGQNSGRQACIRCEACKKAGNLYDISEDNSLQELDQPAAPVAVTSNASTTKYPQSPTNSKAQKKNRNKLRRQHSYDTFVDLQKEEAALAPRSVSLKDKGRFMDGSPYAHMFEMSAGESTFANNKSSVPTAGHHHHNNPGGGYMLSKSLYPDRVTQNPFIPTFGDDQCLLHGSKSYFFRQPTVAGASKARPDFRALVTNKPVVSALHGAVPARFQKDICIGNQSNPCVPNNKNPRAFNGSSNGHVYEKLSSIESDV
# NR1/NR2B [2] = biological target: NR1/NR2B (Homo sapiens (Human), UniProt Q13224); assay: as above; settings: read-out: NR2B NAM IC50
# Chain of NR1/NR2B (Homo sapiens (Human), UniProt Q13224) (Q13224 27-1484, other chains not shown): as above
# [3] = HEK293 cells expressing NR1/NR2B, Ca2+ influx, binned NR2B NAM IC50
# [4] = HEK293 cells expressing NR1/NR2B, Ca2+ influx
Structure (SMILES),pIC50 (NR1/NR2B [1]; [3]),pIC50 (NR1/NR2B [2]; [4]),pIC50 (NR1/NR2B [1]),pIC50 (NR1/NR2B [2])
"Oc1ccc([C@H](O)CN2C[C@@H]3C[C@](O)(Cc4ccccc4)C[C@@H]3C2)cc1 [Example 292, (3aR,5S,6aS)-5-benzyl-2-((S)-2-hydroxy-2-(4-hydroxyphenyl)ethyl) octahydrocyclopenta [c]pyrrol-5-ol]",5.00 to 6.00,5.33,,
"COc1cccc(NC(=O)N2C[C@H]3CC(Cc4ccccc4)C[C@H]3C2)c1 (stereo partly drawn) [Example 294, (3aR,6aS)-5-benzyl-N-(3-methoxyphenyl) hexahydro-cylcopenta[c]pyrrole-2(1H)-carboxamide]",< 5.00,5.00,,
"O=C(CN1C[C@H]2CC(Cc3ccccc3)C[C@H]2C1)c1ccc(O)cc1 (stereo partly drawn) [Example 295, 2-((3aR,6aS)-5-benzylhexahydrocyclo-penta[c]pyrrol-2(1H)-yl)-1-(4-hydroxyphenyl)ethanone]",> 7.00,7.29,,
"O=C(CN1C[C@H]2C[C@@H](Cc3ccccc3)C[C@H]2C1)c1ccc(O)cc1 [Example 303, 2-[(3aR,5S,6aS)-5-benzyl-octahydrocyclopenta[c]pyrrol-2-yl]-1-(4-hydroxyphenyl)ethan-1-onefluorophenol]",> 7.00,7.41,,
"O=C(CN1C[C@H]2C[C@H](Cc3ccccc3)C[C@H]2C1)c1ccc(O)cc1 [Example 305, 2-[(3aR,5R,6aS)-5-benzyl-octahydrocyclopenta[c]pyrrol-2-yl]-1-(4-hydroxyphenyl)ethan-1-one]",> 7.00,7.27,,
"O=C(CN1C[C@H]2C[C@@H](Cc3ccccc3)C[C@H]2C1)c1ccc(O)c(F)c1 [Example 307, 2-[(3aR,5S,6aS)-5-benzyl-octahydrocyclopenta[c]pyrrol-2-yl]-1-(3-fluoro-4-hydroxyphenyl) ethan-1-one]",> 7.00,7.39,,
"O=C(CN1C[C@H]2C[C@H](Cc3ccccc3)C[C@H]2C1)c1ccc(O)c(F)c1 [Example 308, 2-[(3aR,5R,6aS)-5-benzyl-octahydrocyclopenta[c]pyrrol-2-yl]-1-(3-fluoro-4-hydroxyphenyl) ethan-1-one]",> 7.00,7.28,,
"Oc1ccc([C@@H](O)CN2C[C@@H]3C[C@](F)(Cc4ccccc4)C[C@@H]3C2)cc1 [Example 314, 4-((R)-2-((3aR,5S,6aS)-5-benzyl-5-fluoro-hexahydrocyclopen-ta[c]pyrrol-2(1H)-yl)-1-hydroxyethyl)phenol]",6.00 to 7.00,6.38,,
"Oc1ccc([C@H](O)CN2C[C@@H]3C[C@](F)(Cc4ccccc4)C[C@@H]3C2)cc1 [Example 315, 4-((S)-2-((3aR,5R,6aS)-5-benzyl-5-fluoro-hexahydrocyclopen-ta[c]pyrrol-2(1H)-yl)-1-hydroxyethyl)phenol]",6.00 to 7.00,6.49,,
"O=C(CN1C[C@H]2C[C@@H](CCc3ccccc3)C[C@H]2C1)c1ccc(O)cc1 [Example 324, 1-(4-hydroxyphenyl)-2-((3aR,5r,6aS)-5-phenethylhexa-hydrocyclo-penta[c]pyrrol-2(1H)-yl)ethanone]",6.00 to 7.00,6.67,,
"CC(C(=O)c1ccc(O)cc1)N1C[C@H]2C[C@@H](CCc3ccccc3)C[C@H]2C1 (stereo partly drawn) [Example 325, 1-(4-hydroxyphenyl)-2-((3aR,5r,6aS)-5-phenethylhexa-hydrocyclo-penta[c]pyrrol-2(1H)-yl)propan-1-one]",,,6.00 to 7.00,6.72
"O=C(CN1C[C@@H]2CN(Cc3ccccc3)C[C@@H]2C1)c1ccc(O)cc1 [Example 326, 2-(5-benzylhexahydropyrrolo [3,4-c]pyrrol-2(1H)-yl)-1-(4-hydroxy-phenyl)ethanone]",6.00 to 7.00,6.17,,
"O=C(CN1C[C@@H]2CN(Cc3ccccc3)C[C@@H]2C1)c1ccc(O)cn1 [Example 328, 2-(5-benzylhexahydropyrrolo [3,4-c]pyrrol-2(1H)-yl)-1-(5-hydroxypyridin-2-yl)ethanone]",< 5.00,5.00,,
"O=C(CN1C[C@@H]2CN(Cc3ccccc3)C[C@@H]2C1)c1ccc(O)c(F)c1 [Example 340, 2-(5-benzylhexahydropyrrolo [3,4-c]pyrrol-2(1H)-yl)-1-(3-fluoro-4-hydroxyphenyl)ethanone]",< 5.00,5.00,,
"O=C(CN1CC2(C1)CC(O)(Cc1ccccc1)C2)c1ccc(O)cc1 [Example 342, 2-(6-benzyl-6-hydroxy-2-azspiro[3.3]heptan-2-yl)-1-(4-hydroxyphenyl)ethanone]",5.00 to 6.00,5.57,,
"Oc1ccc([C@@H](O)CN2C[C@@H]3C[C@](O)(Cc4ccccc4)C[C@@H]3C2)cc1 [Example 2291, (3aR,5R,6aS)-5-benzyl-2-((R)-2-hydroxy-2-(4-hydroxyphenyl)ethyl) octahydrocyclopenta [c]pyrrol-5-ol]",6.00 to 7.00,6.48,,

# Further lines, with some results ahead:
pIC50 (NR1/NR2B [1]; [3]),pIC50 (NR1/NR2B [2]; [4]),Structure (SMILES),pIC50 (NR1/NR2B [1]),pIC50 (NR1/NR2B [2])
< 5.00,5.00,"Cc1ccccc1-c1cccc(C(=O)CN2C[C@@H]3C[C@@](O)(Cc4ccccc4)C[C@@H]3C2)c1 [Example 278, 2-((3aR,5r,6aS)-5-benzyl-5-hydroxyhexahydrocyclo-penta[c]pyrrol-2(1H)-yl)-1-(2′-methyl-[1,1′-biphenyl]-3-yl)ethanone]",,
< 5.00,5.00,"COc1ncc(-c2ccc(C(=O)CN3C[C@@H]4C[C@@](O)(Cc5ccccc5)C[C@@H]4C3)cc2)cn1 [Example 279, 2-((3aR,5r,6aS)-5-benzyl-5-hydroxyhexahydrocyclo-penta[c]pyrrol-2(1H)-yl)-1-(4-(2-methoxypyrimidin-5-yl)phenyl)ethanone]",,
< 5.00,5.00,"CC(=O)Nc1ccc(C(=O)CN2C[C@@H]3C[C@@](O)(Cc4ccccc4)C[C@@H]3C2)cn1 [Example 282, N-(5-(2-((3aR,5r,6aS)-5-benzyl-5-hydroxyhexahydrocyclo-penta[c]pyrrol-2(1H)-yl)acetyl)pyridin-2-yl)acetamide]",,
< 5.00,5.00,"CC(C)(C)OC(=O)Nc1ccc(C(=O)CN2C[C@@H]3C[C@@](O)(Cc4ccccc4)C[C@@H]3C2)cn1 [Example 284, tert-butyl (5-(2-(5-benzyl-5-hydroxyhexahydrocyclo-penta[c]pyrrol-2(1H)-yl)acetyl)pyridin-2-yl)carbamate]",,
< 5.00,5.00,"CC(C)(C)C(=O)Nc1ccc(C(=O)CN2C[C@@H]3C[C@@](O)(Cc4ccccc4)C[C@@H]3C2)cn1 [Example 285, N-(5-(2-(5-benzyl-5-hydroxyhexahydrocyclo-penta[c]pyrrol-2(1H)-yl)acetyl)pyridin-2-yl)pivalamide]",,
> 7.00,7.12,"O=C(CN1C[C@@H]2C[C@](O)(Cc3ccccc3)C[C@@H]2C1)c1ccc(O)cc1 [Example 290, 2-((3aR,5r,6aS)-5-benzyl-5-hydroxyhexahydrocyclo-penta[c]pyrrol-2(1H)-yl)-1-(4-hydroxyphenyl)ethanone]",,
6.00 to 7.00,6.76,"O=C(CN1C[C@@H]2C[C@](F)(Cc3ccccc3)C[C@@H]2C1)c1ccc(O)cc1 [Example 310, 2-((3aR,5s,6aS)-5-benzyl-5-fluorohexahydrocyclo-penta[c]pyrrol-2(1H)-yl)-1-(4-hydroxyphenyl)ethanone]",,
> 7.00,7.03,O=C(CN1C[C@@H]2C[C@@](F)(Cc3ccccc3)C[C@@H]2C1)c1ccc(O)cc1 [Example 312],,
> 7.00,7.42,"Oc1ccc([C@@H](O)CN2C[C@@H]3C[C@@](O)(Cc4ccccc4)C[C@@H]3C2)nc1 [Example 1646, (3aR,5S,6aS)-5-benzyl-2-((S)-2-hydroxy-2-(5-hydroxypyridin-2-yl)ethyl)octahydrocyclo-penta[c]pyrrol-5-ol]",,
